Reference: ChEMBL document CHEMBL1201861, “Genomics of Drug Sensitity in Cancer screening data, Wellcome Trust Sanger Institute”

What was measured:
SIMA = experiment: cells; assay type: functional, cell-based, Homo sapiens; settings: Homo sapiens, SIMA;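 note: growth inhibition of SIMA cells, measured with a cell viability readout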
Description: SANGER: Inhibition of human SIMA cell growth in a cell viability assay.

NCI-H889 = experiment: cells; assay type: functional, cell-based; settings: Homo sapiens;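 note: cell growth inhibition of the cell line, read out with a viability assay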
Description: SANGER: Inhibition of human NCI-H889 cell growth in a cell viability assay.

DG-75 = experiment: cells; assay type: functional, cell-based; settings: Homo sapiens;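 note: growth inhibition of DG-75 cells, read out with a cell viability assay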
Description: SANGER: Inhibition of human DG-75 cell growth in a cell viability assay.

IM-9 = experiment: SANGER: Inhibition of human IM-9 cell growth in a cell viability assay.; assay type: functional, cell-based
LOUCY = experiment: cells; assay type: functional, cell-based; settings: Homo sapiens;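 note: growth inhibition of human LOUCY cells, read out with a cell viability assay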
Description: SANGER: Inhibition of human LOUCY cell growth in a cell viability assay.

ST486 = experiment: SANGER: Inhibition of human ST486 cell growth in a cell viability assay.; assay type: functional, cell-based
NCI-H1417 = experiment: cells; assay type: functional, cell-based; settings: Homo sapiens;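 note: human NCI-H1417 cells, growth inhibition determined with a cell viability readout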
Description: SANGER: Inhibition of human NCI-H1417 cell growth in a cell viability assay.

NCI-H2171 = experiment: cells; assay type: functional, cell-based; settings: Homo sapiens;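 note: growth inhibition of human NCI-H2171 cells, read out by a cell viability assay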
Description: SANGER: Inhibition of human NCI-H2171 cell growth in a cell viability assay.

NCI-H2081 = experiment: cells; assay type: functional, cell-based; settings: Homo sapiens;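 note: growth inhibition of human NCI-H2081 cells, read out with a cell viability assay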
Description: SANGER: Inhibition of human NCI-H2081 cell growth in a cell viability assay.

SK-MM-2 = experiment: cells; assay type: functional, cell-based; settings: Homo sapiens;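 note: growth inhibition of human SK-MM-2 cells, read out with a cell viability assay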
Description: SANGER: Inhibition of human SK-MM-2 cell growth in a cell viability assay.

LB647-SCLC = experiment: cells; assay type: functional, cell-based; settings: Homo sapiens;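 note: cell growth inhibition, read out by a viability assay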
Description: SANGER: Inhibition of human LB647-SCLC cell growth in a cell viability assay.

NCI-H748 = experiment: cells; assay type: functional, cell-based; settings: Homo sapiens;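 note: growth inhibition of NCI-H748 cells, measured by a cell viability assay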
Description: SANGER: Inhibition of human NCI-H748 cell growth in a cell viability assay.

NCI-H1436 = experiment: cells; assay type: functional, cell-based; settings: Homo sapiens;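 note: growth suppression of human NCI-H1436 cells, determined with a cell viability readout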
Description: SANGER: Inhibition of human NCI-H1436 cell growth in a cell viability assay.

DMS-153 = experiment: cells; assay type: functional, cell-based; settings: Homo sapiens
Description: SANGER: Inhibition of human DMS-153 cell growth in a cell viability assay.

K052 = experiment: cells; assay type: functional, cell-based; settings: Homo sapiens;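 note: Read-out from a cell viability assay, IC50 reflecting suppression of K052 cell growth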
Description: SANGER: Inhibition of human K052 cell growth in a cell viability assay.

NB1 = experiment: cells; assay type: functional, cell-based; settings: Homo sapiens;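 note: reduction of NB1 cell proliferation, read out with a viability assay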
Description: SANGER: Inhibition of human NB1 cell growth in a cell viability assay.

Kasumi 1 = experiment: cells; assay type: functional, cell-based; settings: Homo sapiens;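 note: growth inhibition of human Kasumi-1 cells, read out by a cell viability assay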
Description: SANGER: Inhibition of human KASUMI-1 cell growth in a cell viability assay.

CA46 = experiment: cells; assay type: functional, cell-based; settings: Homo sapiens;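 note: growth inhibition of human CA46 cells, read out by a cell viability assay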
Description: SANGER: Inhibition of human CA46 cell growth in a cell viability assay.

THP-1 = experiment: cells; assay type: functional, cell-based; settings: Homo sapiens;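 note: growth inhibition of THP-1 cells, read out via a cell viability assay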
Description: SANGER: Inhibition of human THP-1 cell growth in a cell viability assay.

REH = experiment: cells; assay type: functional, cell-based; settings: Homo sapiens;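 note: growth inhibition of REH cells determined with a cell viability read-out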
Description: SANGER: Inhibition of human REH cell growth in a cell viability assay.

GDM-1 = experiment: cells; assay type: functional, cell-based; settings: Homo sapiens;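 note: cell viability readout used to measure growth inhibition of human GDM-1 cells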
Description: SANGER: Inhibition of human GDM-1 cell growth in a cell viability assay.

NCI-H64 = experiment: cells; assay type: functional, cell-based; settings: Homo sapiens;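 note: growth inhibition of NCI-H64 cells, read out with a cell viability assay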
Description: SANGER: Inhibition of human NCI-H64 cell growth in a cell viability assay.

NCI-H345 = experiment: cells; assay type: functional, cell-based; settings: Homo sapiens;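 note: growth inhibition of NCI-H345 cells measured with a cell viability assay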
Description: SANGER: Inhibition of human NCI-H345 cell growth in a cell viability assay.

TE-441-T = experiment: cells; assay type: functional, cell-based; settings: Homo sapiens
Description: SANGER: Inhibition of human TE-441-T cell growth in a cell viability assay.

EW-22 = experiment: cells; assay type: functional, cell-based; settings: Homo sapiens;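 note: growth inhibition of the EW-22 cell line, measured with a cell viability readout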
Description: SANGER: Inhibition of human EW-22 cell growth in a cell viability assay.

SUP-T1 = experiment: cells; assay type: functional, cell-based; settings: Homo sapiens;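 note: growth inhibition of human SUP-T1 cells, read out as cell viability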
Description: SANGER: Inhibition of human SUP-T1 cell growth in a cell viability assay.

NCI-H2141 = experiment: cells; assay type: functional, cell-based; settings: Homo sapiens;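 note: growth inhibition of human NCI-H2141 cells, read out with a cell viability assay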
Description: SANGER: Inhibition of human NCI-H2141 cell growth in a cell viability assay.

NCI-H1694 = experiment: cells; assay type: functional, cell-based; settings: Homo sapiens;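 note: cell viability assay measuring inhibition of growth in human NCI-H1694 cells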
Description: SANGER: Inhibition of human NCI-H1694 cell growth in a cell viability assay.

BC-3 = experiment: cells; assay type: functional, cell-based; settings: Homo sapiens;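 note: cell viability assay measuring growth inhibition of human BC-3 cells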
Description: SANGER: Inhibition of human BC-3 cell growth in a cell viability assay.

SCLC-21H = experiment: cells; assay type: functional, cell-based; settings: Homo sapiens;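 note: growth inhibition of cultured human SCLC-21H cells, read out with a cell viability assay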
Description: SANGER: Inhibition of human SCLC-21H cell growth in a cell viability assay.

LU-165 = experiment: cells; assay type: functional, cell-based; settings: Homo sapiens
Description: SANGER: Inhibition of human LU-165 cell growth in a cell viability assay.

BL-41 = experiment: cells; assay type: functional, cell-based; settings: Homo sapiens;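 note: growth inhibition of human BL-41 cells, read out with a cell viability assay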
Description: SANGER: Inhibition of human BL-41 cell growth in a cell viability assay.

RPMI 8402 = experiment: SANGER: Inhibition of human RPMI-8402 cell growth in a cell viability assay.; assay type: functional, cell-based
NCI-H1522 = experiment: cells; assay type: functional, cell-based; settings: Homo sapiens;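 note: growth inhibition of NCI-H1522 cells, read out with a cell viability assay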
Description: SANGER: Inhibition of human NCI-H1522 cell growth in a cell viability assay.

EVSA-T = experiment: cells; assay type: functional, cell-based, Homo sapiens; settings: Homo sapiens, EVSA-T;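 note: growth inhibition of EVSA-T cells, read out with a cell viability assay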
Description: SANGER: Inhibition of human EVSA-T cell growth in a cell viability assay.

EB-3 = experiment: cells; assay type: functional, cell-based; settings: Homo sapiens;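 note: human EB-3 cells, growth inhibition read out via a cell viability assay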
Description: SANGER: Inhibition of human EB-3 cell growth in a cell viability assay.

CHP-126 = experiment: cells; assay type: functional, cell-based; settings: Homo sapiens
Description: SANGER: Inhibition of human CHP-126 cell growth in a cell viability assay.

SCC-3 = experiment: cells; assay type: functional, cell-based; settings: Homo sapiens;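 note: cell viability assay measuring inhibition of SCC-3 cell growth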
Description: SANGER: Inhibition of human SCC-3 cell growth in a cell viability assay.

CAL-148 = experiment: cells; assay type: functional, cell-based; settings: Homo sapiens
Description: SANGER: Inhibition of human CAL-148 cell growth in a cell viability assay.

MHH-CALL-2 = experiment: cells; assay type: functional, cell-based; settings: Homo sapiens;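 note: growth inhibition of the cell line, read out in a cell viability assay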
Description: SANGER: Inhibition of human MHH-CALL-2 cell growth in a cell viability assay.

TE-15 = experiment: cells; assay type: functional, cell-based; settings: Homo sapiens;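 note: cell viability readout of growth inhibition in TE-15 cells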
Description: SANGER: Inhibition of human TE-15 cell growth in a cell viability assay.

MONO-MAC-6 = experiment: cells; assay type: functional, cell-based; settings: Homo sapiens;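 note: cell viability assay measuring growth inhibition of human MONO-MAC-6 cells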
Description: SANGER: Inhibition of human MONO-MAC-6 cell growth in a cell viability assay.

ARH-77 = experiment: cells; assay type: functional, cell-based; settings: Homo sapiens;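 note: growth inhibition of ARH-77 cells, read out by a cell viability assay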
Description: SANGER: Inhibition of human ARH-77 cell growth in a cell viability assay.

KMS-12-PE = experiment: cells; assay type: functional, cell-based; settings: Homo sapiens;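 note: growth inhibition of human KMS-12-PE cells, measured with a cell viability assay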
Description: SANGER: Inhibition of human KMS-12-PE cell growth in a cell viability assay.

Which IC50 (SIMA) does the source give for `C=C1C(=O)O[C@@H]2C3O[C@]3(C)CC/C=C(\C)CC[C@@H]12` (some centres undefined) here?
The IC50 was > 5 µM.

What about the IC50 (NCI-H889) of the same molecule?
The IC50 was > 5 µM.

And the IC50 (DG-75)?
Its IC50 is > 5 µM.

What about the IC50 (IM-9) of the same molecule?
Its IC50 is > 5 µM.

What about the IC50 (LOUCY) of the same molecule?
Its IC50 is > 5 µM.

What about the IC50 (ST486) of the same molecule?
The IC50 was > 5 µM.

What about the IC50 (NCI-H1417) of the same molecule?
Its IC50 is > 5 µM.

What about the IC50 (NCI-H2171) of the same molecule?
The IC50 was > 5 µM.

What about the IC50 (NCI-H2081) of the same molecule?
Its IC50 is > 5 µM.

What about the IC50 (SK-MM-2) of the same molecule?
The IC50 was > 5 µM.

And the IC50 (LB647-SCLC)?
Its IC50 is > 5 µM.

What about the IC50 (NCI-H748) of the same molecule?
Its IC50 is > 5 µM.

What about the IC50 (NCI-H1436) of the same molecule?
The IC50 was > 5 µM.

And the IC50 (DMS-153)?
Its IC50 is > 5 µM.

And the IC50 (K052)?
Its IC50 is > 5 µM.

And the IC50 (NB1)?
The IC50 was > 5 µM.

What about the IC50 (Kasumi 1) of the same molecule?
Its IC50 is > 5 µM.

And the IC50 (CA46)?
The IC50 was > 5 µM.

And the IC50 (THP-1)?
The IC50 was > 5 µM.

And the IC50 (REH)?
Its IC50 is > 5 µM.

What about the IC50 (GDM-1) of the same molecule?
The IC50 was > 5 µM.

What about the IC50 (NCI-H64) of the same molecule?
The IC50 was > 5 µM.

And the IC50 (NCI-H345)?
Its IC50 is > 5 µM.

And the IC50 (TE-441-T)?
Its IC50 is > 5 µM.

And the IC50 (EW-22)?
Its IC50 is > 5 µM.

And the IC50 (SUP-T1)?
Its IC50 is > 5 µM.

And the IC50 (NCI-H2141)?
The IC50 was > 5 µM.

And the IC50 (NCI-H1694)?
Its IC50 is > 5 µM.

What about the IC50 (BC-3) of the same molecule?
Its IC50 is > 5 µM.

And the IC50 (SCLC-21H)?
Its IC50 is > 5 µM.

And the IC50 (LU-165)?
Its IC50 is > 5 µM.

And the IC50 (BL-41)?
The IC50 was > 5 µM.

And the IC50 (RPMI 8402)?
The IC50 was > 5 µM.

What about the IC50 (NCI-H1522) of the same molecule?
Its IC50 is > 5 µM.

And the IC50 (EVSA-T)?
Its IC50 is > 5 µM.

What about the IC50 (EB-3) of the same molecule?
The IC50 was > 5 µM.

What about the IC50 (CHP-126) of the same molecule?
The IC50 was > 5 µM.

And the IC50 (SCC-3)?
Its IC50 is 2800 nM.

And the IC50 (CAL-148)?
The IC50 was > 5 µM.

What about the IC50 (MHH-CALL-2) of the same molecule?
Its IC50 is > 5 µM.

What about the IC50 (TE-15) of the same molecule?
Its IC50 is > 5 µM.

And the IC50 (MONO-MAC-6)?
The IC50 was > 5 µM.

What about the IC50 (ARH-77) of the same molecule?
Its IC50 is > 5 µM.

And the IC50 (KMS-12-PE)?
The IC50 was > 5 µM.

With `CC1=C2C[C@H]3[C@@H](CC=C4C[C@@H](O)CC[C@@]43C)[C@@H]2CC[C@]12O[C@@H]1C[C@H](C)CN[C@H]1[C@H]2C` [CYCLOPAMINE] as the molecule, how does the IC50 (SIMA) read?
The IC50 was > 16 µM.

And the IC50 (NCI-H889)?
The IC50 was > 16 µM.

What about the IC50 (DG-75) of the same molecule?
The IC50 was > 16 µM.

What about the IC50 (IM-9) of the same molecule?
The IC50 was > 16 µM.

What about the IC50 (LOUCY) of the same molecule?
Its IC50 is > 16 µM.

What about the IC50 (ST486) of the same molecule?
The IC50 was > 16 µM.

And the IC50 (NCI-H1417)?
The IC50 was > 16 µM.

What about the IC50 (NCI-H2171) of the same molecule?
Its IC50 is > 16 µM.

And the IC50 (NCI-H2081)?
The IC50 was > 16 µM.

What about the IC50 (SK-MM-2) of the same molecule?
Its IC50 is > 16 µM.

What about the IC50 (LB647-SCLC) of the same molecule?
The IC50 was > 16 µM.

And the IC50 (NCI-H748)?
The IC50 was > 16 µM.

And the IC50 (NCI-H1436)?
The IC50 was > 16 µM.

What about the IC50 (DMS-153) of the same molecule?
The IC50 was > 16 µM.

And the IC50 (K052)?
The IC50 was > 16 µM.

And the IC50 (NB1)?
Its IC50 is > 16 µM.

What about the IC50 (Kasumi 1) of the same molecule?
Its IC50 is > 16 µM.

And the IC50 (CA46)?
Its IC50 is > 16 µM.

And the IC50 (THP-1)?
The IC50 was > 16 µM.

And the IC50 (REH)?
Its IC50 is > 16 µM.

And the IC50 (GDM-1)?
The IC50 was > 16 µM.

What about the IC50 (NCI-H64) of the same molecule?
The IC50 was > 16 µM.

What about the IC50 (NCI-H345) of the same molecule?
Its IC50 is > 16 µM.

What about the IC50 (TE-441-T) of the same molecule?
The IC50 was > 16 µM.

What about the IC50 (SUP-T1) of the same molecule?
Its IC50 is > 16 µM.

What about the IC50 (NCI-H2141) of the same molecule?
Its IC50 is > 16 µM.

What about the IC50 (NCI-H1694) of the same molecule?
Its IC50 is > 16 µM.

What about the IC50 (BC-3) of the same molecule?
The IC50 was > 16 µM.

And the IC50 (SCLC-21H)?
Its IC50 is > 16 µM.

And the IC50 (LU-165)?
Its IC50 is > 16 µM.

What about the IC50 (BL-41) of the same molecule?
Its IC50 is > 16 µM.

What about the IC50 (RPMI 8402) of the same molecule?
Its IC50 is 15.9 µM.

What about the IC50 (NCI-H1522) of the same molecule?
Its IC50 is > 16 µM.

And the IC50 (EVSA-T)?
Its IC50 is > 16 µM.

What about the IC50 (EB-3) of the same molecule?
Its IC50 is > 16 µM.

What about the IC50 (CHP-126) of the same molecule?
Its IC50 is > 16 µM.

What about the IC50 (SCC-3) of the same molecule?
Its IC50 is > 16000 nM.

And the IC50 (CAL-148)?
Its IC50 is > 16 µM.

And the IC50 (MHH-CALL-2)?
Its IC50 is > 16 µM.

And the IC50 (TE-15)?
Its IC50 is > 16 µM.

And the IC50 (MONO-MAC-6)?
Its IC50 is > 16 µM.

And the IC50 (ARH-77)?
Its IC50 is > 16 µM.

What about the IC50 (KMS-12-PE) of the same molecule?
Its IC50 is > 16 µM.

What does the source list for `CS(=O)(=O)CCNCc1ccc(-c2ccc3ncnc(Nc4ccc(OCc5cccc(F)c5)c(Cl)c4)c3c2)o1` [LAPATINIB]?
IC50 (SIMA): > 2 µM; IC50 (NCI-H889): > 2 µM; IC50 (DG-75): > 2 µM; IC50 (IM-9): > 2 µM; IC50 (LOUCY): > 2 µM; IC50 (ST486): > 2 µM; IC50 (NCI-H1417): > 2 µM; IC50 (NCI-H2171): > 2 µM; IC50 (NCI-H2081): > 2 µM; IC50 (SK-MM-2): > 2 µM; IC50 (LB647-SCLC): > 2 µM; IC50 (NCI-H748): > 2 µM; IC50 (NCI-H1436): > 2 µM; IC50 (DMS-153): > 2 µM; IC50 (NB1): > 2 µM; IC50 (Kasumi 1): > 2 µM; IC50 (CA46): > 2 µM; IC50 (THP-1): > 2 µM; IC50 (REH): > 2 µM; IC50 (GDM-1): > 2 µM; IC50 (NCI-H64): > 2 µM; IC50 (NCI-H345): > 2 µM; IC50 (TE-441-T): > 2 µM; IC50 (SUP-T1): > 2 µM; IC50 (NCI-H2141): > 2 µM; IC50 (NCI-H1694): > 2 µM; IC50 (BC-3): > 2 µM; IC50 (SCLC-21H): > 2 µM; IC50 (LU-165): > 2 µM; IC50 (BL-41): > 2 µM; IC50 (RPMI 8402): > 2 µM; IC50 (NCI-H1522): > 2 µM; IC50 (EVSA-T): > 2 µM; IC50 (EB-3): > 2 µM; IC50 (CHP-126): > 2 µM; IC50 (SCC-3): > 2000 nM; IC50 (CAL-148): > 2 µM; IC50 (MHH-CALL-2): > 2 µM; IC50 (TE-15): > 2 µM; IC50 (MONO-MAC-6): > 2 µM; IC50 (ARH-77): > 2 µM; IC50 (KMS-12-PE): > 2 µM
